The values below are quoted from earlier work in patent US20250223207A1, “COMPOSITIONS OF SUPPORTED METAL CATALYSTS AND METHODS THEREOF” (THE TEXAS A&M UNIVERSITY SYSTEM, priority 2024, published 2025).

Broadly, the pKa is the pH at which an ionisable group is half protonated.

The conditions of one data set: PFAS compounds, Table 7.
For the compound `O=C(O)C(F)(OC(F)(F)C(F)(F)C(F)(F)F)C(F)(F)F` (stereo not shown) [HFPO-DA, hexafluoropropylene oxide dimer acid], the pKa is on record as 2.84. `O=S(=O)(O)C(F)(F)C(F)(F)C(F)(F)C(F)(F)F` [PFBS, perfluorobutane sulfonic acid]: the pKa is listed as −3.31.

`O=S(=O)(O)C(F)(F)C(F)(F)C(F)(F)C(F)(F)C(F)(F)C(F)(F)F` [PFHxS, perfluorohexanesulfonic acid]: the pKa is given as −3.32. With `O=C(O)C(F)(F)C(F)(F)C(F)(F)C(F)(F)C(F)(F)C(F)(F)C(F)(F)C(F)(F)F` [PFNA, perfluorononanoic acid], the pKa was −0.21. With `O=C(O)C(F)(F)C(F)(F)C(F)(F)C(F)(F)C(F)(F)C(F)(F)C(F)(F)F` [PFOA, perfluorooctanoic acid], the pKa was 1.30. Turning to `O=S(=O)(O)C(F)(F)C(F)(F)C(F)(F)C(F)(F)C(F)(F)C(F)(F)C(F)(F)C(F)(F)F` [PFOS, perfluoro octane sulfonic acid], the pKa result is “=<1.0”.

For another data set the following is noted: human bodies, oral.
As to `COc1cc(Cc2cnc(N)nc2N)cc(OC)c1OC` [TMP, Trimethoprim], the “Fraction of orally taken dose metabolized” value is 22.5%.
